Measured values taken from PubChem BioAssay (NCI).
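How tested: cells in 96-well plates exposed to compound for 48 hours at five concentrations. At the TGI there is no net growth.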 Activity calls are given as the source filed them. Cut-off read from the data, not from the text of the source: active = GI50 below about 0.43 µM; inactive = the rest.

How the values were obtained:
Assay in all cases: inhibition of tumour cell growth, NCI panel, 48 h
TK-10 renal = test system: TK-10 renal
UACC-257 melanoma = test system: UACC-257 melanoma
RXF 393 renal = test system: RXF 393 renal
CAKI-1 renal = test system: CAKI-1 renal
COLO 205 colon = test system: COLO 205 colon
DLD-1 colon = test system: DLD-1 colon
SW-620 colon = test system: SW-620 colon
SN12C renal = test system: SN12C renal
HCT-15 colon = test system: HCT-15 colon
DMS 114 small cell lung = test system: DMS 114 small cell lung
UACC-62 melanoma = test system: UACC-62 melanoma
HL-60(TB) leukemia = test system: HL-60(TB) leukemia
NCI-H522 lung = test system: NCI-H522 lung
OVCAR-5 ovarian = test system: OVCAR-5 ovarian
UO-31 renal = test system: UO-31 renal
NCI-H460 lung = test system: NCI-H460 lung
U251 CNS = test system: U251 CNS
KM20L2 colon = test system: KM20L2 colon
HT29 colon = test system: HT29 colon
SNB-19 CNS = test system: SNB-19 CNS
NCI-H226 lung = test system: NCI-H226 lung
SF-295 CNS = test system: SF-295 CNS
ACHN renal = test system: ACHN renal
SR leukemia = test system: SR leukemia
HOP-62 NSCLC = test system: HOP-62 NSCLC
SNB-78 CNS = test system: SNB-78 CNS
M14 melanoma = test system: M14 melanoma
SNB-75 CNS = test system: SNB-75 CNS
OVCAR-3 ovarian = test system: OVCAR-3 ovarian
786-0 renal = test system: 786-0 renal
HOP-92 NSCLC = test system: HOP-92 NSCLC
A549 NSCLC = test system: A549 NSCLC
LOX IMVI melanoma = test system: LOX IMVI melanoma
MALME-3M melanoma = test system: MALME-3M melanoma
RPMI-8226 leukemia = test system: RPMI-8226 leukemia
SK-MEL-2 melanoma = test system: SK-MEL-2 melanoma
EKVX NSCLC = test system: EKVX NSCLC
SF-268 CNS = test system: SF-268 CNS
NCI-H23 lung = test system: NCI-H23 lung
MOLT-4 leukemia = test system: MOLT-4 leukemia
OVCAR-8 ovarian = test system: OVCAR-8 ovarian
KM12 colon = test system: KM12 colon
SK-OV-3 ovarian = test system: SK-OV-3 ovarian
LXFL 529 NSCLC = test system: LXFL 529 NSCLC
XF 498 CNS = test system: XF 498 CNS
DMS 273 small cell lung = test system: DMS 273 small cell lung
SF-539 CNS = test system: SF-539 CNS
K-562 leukemia = test system: K-562 leukemia
CCRF-CEM leukemia = test system: CCRF-CEM leukemia
IGROV1 ovarian = test system: IGROV1 ovarian
OVCAR-4 ovarian = test system: OVCAR-4 ovarian
HCT-116 colon = test system: HCT-116 colon
M19-MEL melanoma = test system: M19-MEL melanoma
A498 renal = test system: A498 renal
HCC-2998 colon = test system: HCC-2998 colon
SK-MEL-5 melanoma = test system: SK-MEL-5 melanoma
SK-MEL-28 melanoma = test system: SK-MEL-28 melanoma

Measured: TGI

C[C@@]1(C(=O)c2ccccc2)N(c2ccccc2)[C@@]1(C)C(=O)c1ccccc1
not listed: OVCAR-4 ovarian | HCT-116 colon | M19-MEL melanoma | A498 renal | HCC-2998 colon | SK-MEL-5 melanoma | SK-MEL-28 melanoma
inactive: all other assays above

CO/C(=N\N=Cc1ccccc1)c1ccncc1
97.1 µM: NCI-H226 lung
not listed: RXF 393 renal | 786-0 renal | LOX IMVI melanoma
> 100 µM: all other assays above

Cc1nc(N)nn1C1OCC(O)C(O)C1O (stereo not given)
not listed: OVCAR-5 ovarian | NCI-H226 lung | SR leukemia | HOP-92 NSCLC | LOX IMVI melanoma | M19-MEL melanoma
> 100 µM: all other assays above
